Values joined by “and” are separate entries in the source; they are usually repeats but may differ in a detail not shown here. Identical values can stand only once. “Also recorded” adds a separate entry of the source.
Experiments:
RRE-IIB RNA [1] = experiment: Isothermal titration calorimetry (ITC) of peptide binding to RRE-IIB; parameters: species or system HIV-1; settings: for N1 / N2: ITC stoichiometry; for N1 / ΔH1 (binding enthalpy ΔH) / TΔS1: first site; for N1 / N2 / ΔH1 (binding enthalpy ΔH) / Ka2 / TΔS2 / ΔH2 / TΔS1: two-site model; for N2 / Ka2 / TΔS2 / ΔH2: second (low affinity) site; for ΔH1 (binding enthalpy ΔH): 350 µM peptide into 10 µM RRE-IIB, corrected for heat of dilution, pH 7.5, 50 mM NaCl; for Ka1 / TΔS1: RSG-1.2 mutants; for Ka1: high affinity site, model for two set of binding sites, 10 mM sodium cacodylate, 0.1 mM EDTA, 50 mM NaCl, ± = SD of data from fitted curve; for TΔS1: derived from fits of ITC profiles
Method: (§1) Fluorescence labeled RNA having 2-Aminopurine (2-AP) at U72 position of RRE-IIB was obtained from Ocimum Biosolutions Ltd. Netherlands. All the stock solutions were prepared in Milli-Q water. Other reagents were commercially available and were of analytical grade quality and used without any further purification. All the experiments were performed using 10 mM sodium cacodylate buffer containing 0.1 mM EDTA and 50 mM NaCl at pH 7.5.
(§2) Isothermal titration calorimetry measurements were conducted at 25°C on a Microcal VP-ITC (Microcal, Inc.; Northampton MA). Titration of RRE-IIB with Rev as well as RSG-1.2 were done by injecting 4 µL aliquots of 350 µM peptide from a 250 µL rotating syringe (350 rpm) into an isothermal sample chamber containing 1.5 mL of 10 µM RRE-IIB solution. Each experiment of this type was accompanied by the corresponding control experiment in which 350 µM peptide were injected into a solution of buffer alone. The duration of each injection was 8 s and the delay between the injections was 300 s, the initial delay prior to the first injection was 200 s. Each injection generated a heat burst curve (microcalories/second vs. seconds) and the area under each curve was determined by integration [using origin version 7.0 software (Microcal, Inc.; Northampton, MA)] to obtain the measure of heat associated with that injection. The buffer corrected ITC profiles for the binding of Rev and RSG-1.2 were fit with a model for two set of binding site. The net enthalpy change for RRE-IIB stem loop interaction with Rev and RSG-1.2 were determined by subtraction of the heat of dilution.

RRE-IIB RNA [2] = experiment: Temperature dependent UV melting of RRE-IIB with peptides; format: binding, HIV-1; settings: pH 7.5
Method: Temperature dependent UV melting experiments were carried out using a Cary 100 (Varian) Spectrophotometer equipped with thermoelectrically controlled cell holder. A quartz cell of 1cm path length was used for all absorbance studies. Temperature dependent absorption spectra were obtained at 260 nm with rate of 0.5°C/min. increase in temperature, from 40 to 95°C. In these experiments the concentration of RNA was kept 1 µM and peptide concentration was increased from 0–3 µM. The buffer solution contained 10 mM sodium cacodylate buffer, 0.1 mM EDTA and 50 mM NaCl at pH 7.5. For each optically detected transition, the melting temperature (Tm) was determined using previously described methods.

RRE-IIB RNA [3] = experiment: Temperature dependent ITC (heat capacity change); format: binding, HIV-1; settings: ITC at 10, 20, 25 and 35°C, pH 7.5
Method: as §2
Heat capacity changes (ΔCp), that accompany the peptide binding to RNA can be determined by performing temperature dependent ITC experiments under same buffer conditions. […]

2-AP labeled RRE-IIB RNA = experiment: Fluorescence titration of 2-AP labeled RRE-IIB with peptides; format: binding, HIV-1; settings: pH 7.5, 25°C
Method: as §1
Steady state fluorescence spectra were collected using Xe 900 lamp of Edinburgh instruments Spectrofluorometer equipped with thermoelectrically controlled cell holders. The excitation of the sample was done at 320 nm wavelength and fluorescence spectra were collected from 340 nm to 450 nm. The excitation as well as emission slit width were kept at 3 nm. A quartz cell of 1 cm path length, transparent from four sides, was used. All the experiments were conducted at 25°C. RNA concentration was fixed at 0.1 µM and the peptide concentration was varied from 0–0.3 µM. The buffer solution contained 10 mM sodium cacodylate buffer, 0.1 mM EDTA and 50 mM NaCl at pH 7.5 and 25°C. The changes in the fluorescence intensity at 370 nm were monitored as a function of increase in peptide concentration. For data analysis, the observed fluorescence intensity was considered as the sum of the weighted contributions from a peptide bound and an unbound RNA form. [drawing 1] (1)
Where F corresponds to the observed fluorescence intensity at each titrant concentration, F0 and Fb are the respective fluorescence intensities of initial and final states of titration, α is the mole fractions of RNA in bound form. Assuming 1∶1 stoichiometry for the interaction, it can be shown that: [drawing 2] (2)
Where Ka is the association constant, [R0] is the total RNA concentration and [Lt] is the added peptide concentration. From Equations (1) and (2), it can be shown that: [drawing 3] (3)
Where ΔF = F – F0 and ΔFmax = Fmax – F0
The free energy of binding was calculated from the standard relation ΔG = -RTlnKa where R is the universal gas constant and T is the absolute temperature in Kelvin.
Fluorescence spectroscopy is a useful tool for determining binding constants of two interacting partners. We employed this tool for determining binding affinity of Rev and RSG-1.2 with the RRE-IIB RNA stem loop structure. In order to carry out fluorescence titration, RRE-IIB RNA was fluorescently labeled by incorporating 2-Aminopurine (2-AP) at position U72. […] All the fluorescence titrations were performed using 10 mM sodium cacodylate buffer containing 0.1 mM EDTA and 50 mM NaCl at pH 7.5 and at 25°C. […] Normalized change in fluorescence intensity at 370 nm was plotted against molar concentration of peptide. […]

RRE-IIB RNA [4] = experiment: CD spectroscopy of RRE-IIB with peptides; format: binding, HIV-1; settings: 5 µM RNA, pH 7.5, 25°C
Method: Circular dichroism (CD) spectra were recorded on a Jasco spectropolarimeter (model J815, Japan) equipped with a thermoelectrically controlled cell holder. The cuvette used for acquiring spectra was of 1 cm in path length. CD spectra were recorded from 350 nm to 200 nm; with accumulation of 3 and averaged at 25°C. The buffer solution contained 10 mM sodium cacodylate buffer, 0.1 mM EDTA and 50 mM NaCl at pH 7.5. In a titration experiment RNA concentration was fixed at 5 µM and the peptides concentration varied from 0–25 µM.

Sequence	N1 (RRE-IIB RNA [1]; pH 7.5, 25°C)	N2 (RRE-IIB RNA [1]; pH 7.5, 25°C)	ΔH1 (binding enthalpy ΔH) (RRE-IIB RNA [1]; ITC, 25°C)	Ka1 (RRE-IIB RNA [1]; ITC, pH 7.5, 25°C) [M^−1 × 10^7]	Ka2 (RRE-IIB RNA [1]; ITC, pH 7.5, 25°C) [M^−1 × 10^5]	TΔS2 (RRE-IIB RNA [1]; ITC, pH 7.5, 25°C) [kcal/mol]	ΔH2 (RRE-IIB RNA [1]; ITC, pH 7.5, 25°C) [kcal/mol]	TΔS1 (RRE-IIB RNA [1]; pH 7.5, 25°C) [kcal/mol]	further results
DRRRRGSRPSGAERKRRRAAAA [R15K]	1.6	1.6	-8.7 ± 0.1 kcal/mol	2.4±0.7	7.0±0.2	5.5 ± 0.1	-2.4 ± 0.3	1.3 ± 0.2	–
DRRRRGSRPSGAERRDRRAAAA [R15D]	1.5	1.5	-3.9 ± 0.1 kcal/mol	2.9±0.4	14.2±0.2	7.3 ± 0.4	-1.0 ± 0.1	6.2 ± 0.3	–
DTRQARRNRRRRWRERQRAAAAR [Rev, minimal arginine rich Rev peptide of HIV-1 ([…])]	–	–	≈ 0 kcal/mol and 0 kcal/mol	–	–	–	–	–	ΔTm (increase in Tm of RRE-IIB; Tm of RNA alone 67.3°C) (RRE-IIB RNA [2]; peptide to RNA molar ratio 1∶1, 1 µM RNA, 260 nm, 0.5°C/min, 10 mM sodium cacodylate, 50 mM NaCl, 0.1 mM EDTA): 1 °C; change in Tm at higher peptide ratios (RRE-IIB RNA [2]; ratios above 1∶1 (2∶1 and 3∶1), 1 µM RNA): negligible changes were observed; change in heat capacity (in words) (RRE-IIB RNA [3]): essentially no change in heat capacity; temperature dependence of binding enthalpy (RRE-IIB RNA [3]): does not show any change in enthalpy of binding; also recorded: no change in binding enthalpy; change in fluorescence intensity of 2-AP RRE-IIB (2-AP labeled RRE-IIB RNA; 0.1 µM RNA, 370 nm): fluorescence intensity increased upon addition of peptide; association constant Ka (2-AP labeled RRE-IIB RNA; 2-AP at U72, 0.1 µM RNA, 370 nm, 10 mM sodium cacodylate, 0.1 mM EDTA, 50 mM NaCl, fit with equation 3 (1∶1)): 3.1±0.4×10^7 M^−1; Ka1 (2-AP labeled RRE-IIB RNA; fluorescence binding studies (footnote b), 2-AP at U72, 0.1 µM RNA, peptide 0–0.3 µM, ex 320 nm/em 370 nm, 10 mM sodium cacodylate, 0.1 mM EDTA, 50 mM NaCl, 1∶1 fit): 3.1±0.4 ^b M^−1 × 10^7; ΔG (Gibb's free energy of binding) (2-AP labeled RRE-IIB RNA; ΔG = -RTlnKa, fluorescence Ka): -10.2 ± 0.1 kcal/mol; heat changes / enthalpy of binding (in words) (RRE-IIB RNA [1]; ITC, 25°C, pH 7.5): small; also recorded: almost zero enthalpy of interaction; also recorded: negligible enthalpy; TΔS1 (TΔS) (RRE-IIB RNA [1]; calculated by ΔG = ΔH − TΔS from fluorescence Ka and ITC ΔH (footnote c), pH 7.5, 25°C): 10.2±0.2 kcal/mol and 10.2±0.2 ^c kcal/mol; TΔS (RRE-IIB RNA [1]; calculated by ΔG = ΔH − TΔS, 25°C, pH 7.5): 10.2 ± 0.2 kcal/mol; thermodynamic driving force (RRE-IIB RNA [1]; from ΔH and TΔS, 25°C, pH 7.5): essentially entropically driven; also recorded: exclusively entropy driven; CD signal of RRE-IIB at 240 nm and 210 nm (RRE-IIB RNA [4]; peptide 0–25 µM (up to 5∶1), 10 mM sodium cacodylate, 50 mM NaCl, 0.1 mM EDTA): became more negative at 240 nm and 210 nm; CD signal of RRE-IIB at 265 nm (RRE-IIB RNA [4]; up to 5∶1 peptide): no significant change was observed at 265 nm

— publication PMC3154333, “Specificity of RSG-1.2 Peptide Binding to RRE-IIB RNA Element of HIV-1 over Rev Peptide Is Mainly Enthalpic in Origin” (PLoS ONE, 2011)
